Reference: patent publication EP0769956B1, “USE OF A GnRH ANTAGONIST FOR THE PREPARATION OF A MEDICAMENT FOR THE TREATMENT OF GONADAL-STEROID CONDITIONS” (THE MEDICAL COLLEGE OF HAMPTON ROADS, priority 1994, dated 2000)
Several values for one entry are separate records, joined by “and”; a condition that tells them apart may be missing. Equal values may be shown once.

Legend:
in vivo = assay: in vivo; parameters: species or system cynomolgus monkeys; conditions: cynomolgus monkey, sc
Procedure: Eleven adult female cynomolgus monkeys having regular and presumably ovulatory menstrual cycles were entered into the study. Body weights were determined monthly. Menstrual bleeding and spotting were recorded daily by visual inspection of external genitalia and insertion of vaginal swabs using a saline moistened cotton-tipped applicator, respectively. Blood samples were collected from femoral vessels and the serum stored for subsequent RIA of estradiol and progesterone. Coefficients of variation for these assays were: 7.4 and 11.1; and 7.0 and 10.9%, respectively, for within and between assays. The GnRH antagonist ([…]) used was Nal-Glu: [[…]. The design was progressive in that all eleven monkeys initially received […] at 0.05 mg/kg starting on day 2 of the menstrual cycle and continuing daily until results of the progesterone challenge test and estradiol levels in circulation indicated the need to raise the dose. Concurrently, a pair of progesterone-loaded silastic implants were inserted sc during […] treatment from day 20 and 30, and then removed. If withdrawal menses occurred during the next week, the individual Nal-Glu dose was raised to 0.1 mg/kg daily. On […] treatment day 50, the 10 day progesterone challenge test was repeated for all monkeys. […] Again, amenorrhea or withdrawal menses was recorded. […]

pituitary-ovarian axis = conditions: sufficient single dose; monkeys; cited from earlier work
[1] = tested on: ovarian estrogen secretion; assay: Part I dose-finding study: RIA of serum estradiol during 14 days of daily im treatment; assay type: in vivo, cynomolgus monkeys; conditions: 0.1 mg/kg im daily; some individual primates, predominately
Procedure: (§1) Eleven adult female cynomolgus monkeys having regular and presumably ovulatory menstrual cycles were entered into the study. Body weights were determined monthly. Menstrual bleeding and spotting were recorded daily by visual inspection of external genitalia and insertion of vaginal swabs using a saline moistened cotton-tipped applicator, respectively. Blood samples were collected from femoral vessels and the serum stored for subsequent RIA of estradiol and progesterone. Coefficients of variation for these assays were: 7.4 and 11.1; and 7.0 and 10.9%, respectively, for within and between assays. The GnRH antagonist (GnRHant) used was Nal-Glu: [Ac-D2NAL, 4ClDPhe^2, D3Pal^3, Arg^5, DGlu^6(AA), DAla^10]-GnRH.
In Part I of the study, the object was to perform a brief dose-finding study that indicated residual serum estradiol levels in intact primates previously illustrating regular menstrual cycles. Specifically sought was an approximation of the minimal daily im dose of Nal-Glu sufficient to suppress circulating estradiol levels into the target range: less than 45 pg/ml but more than 35 pg/ml. Beginning on day 2 of the menstrual cycle, Nal-Glu GnRHant, suspended in sesame oil, was administered between 9 and 10 am in doses of 0.1 (n = 5) and 0.3 mg/kg (n = 6) for 14 days. Femoral blood was obtained daily under ketamine anesthesia. […]

[2] = tested on: ovarian estrogen secretion; assay: Part II individualized dose titering: RIA of serum estradiol every 10 days; assay type: in vivo, cynomolgus monkeys
Procedure: as §1
(§2) After a 60 day wash-out interval, the Part II experimental design had two objectives: 1) attempt to titer the GnRHant dose to individual monkeys so that residual ovarian estrogen secretion was often within the target range (estradiol at 35 to 45 pg/ml) in as many of the blood samples as possible; and 2) perform periodic progesterone challenge tests wherein withdrawal bleeding indicates significant estrogen-induced endometrial proliferation (i.e. excessive estrogenic influence) versus amenorrhea (the absence of progesterone withdrawal bleeding) as an indicator that the GnRHant dose and, in turn, the tonic ovarian estrogen production was indicative of a controlled estrogenic milieu.
(§3) The design was progressive in that all eleven monkeys initially received Nal-Glu GnRHant at 0.05 mg/kg starting on day 2 of the menstrual cycle and continuing daily until results of the progesterone challenge test and estradiol levels in circulation indicated the need to raise the dose. Concurrently, a pair of progesterone-loaded silastic implants were inserted sc during GnRHant treatment from day 20 and 30, and then removed. If withdrawal menses occurred during the next week, the individual Nal-Glu dose was raised to 0.1 mg/kg daily. On GnRHant treatment day 50, the 10 day progesterone challenge test was repeated for all monkeys. Those primates who were amenorrheic remained on this dose of Nal-Glu; any "bleeders" were to be shifted to a higher dose of GnRHant at 0.2 mg/kg daily through treatment day 90, with the final progesterone challenge test given to all monkeys on days 80 to 90. Again, amenorrhea or withdrawal menses was recorded.
Femoral blood samples were collected every 10 days through the study for RIA of estradiol and progesterone.

[3] = tested on: estrogen-induced endometrial proliferation; assay: Progesterone challenge test (withdrawal bleeding versus amenorrhea, spotting); assay type: in vivo, cynomolgus monkeys
Procedure: as §1, §2, §3
For definition, withdrawal bleeding was scored when blood was on the external genitalia for two or more consecutive days within the week following progesterone withdrawal. Spotting was scored when blood was evident only by coloration of the cotton swab upon insertion into the vagina.

CC(=O)[C@H]1CC[C@H]2[C@@H]3CCC4=CC(=O)CC[C@]4(C)[C@H]3CC[C@]12C [progesterone]
concentration at 240 h (in vivo): 6.4 ± 0.6 ng/mL

D-Ac-D-2-Nal^1-DpClPhe^2-D-3-Pal^3-Ser^4-NiLys^5-D-NicLys^6-Leu^7-ILys^8-Pro^9-D-Ala^10 [antide]
effect on the pituitary-ovarian axis (pituitary-ovarian axis): immediate and sustained inhibition of the pituitary-ovarian axis

[Ac-D2NAL, 4ClDPhe^2, D3Pal^3, Arg^5, DGlu^6(AA), DAla^10]-GnRH [Nal-Glu]
serum estradiols [1]: < 25 pg/mL
mean serum estradiol levels ([2]; 0.05 mg/kg im daily, the two primates with withdrawal amenorrhea, target zone 35 to 45 pg/ml): in or near the target zone
estradiol suppression ([2]; 0.2 mg/kg im daily, the lone resistant monkey): under 20 pg/ml
mean circulating estradiol levels ([2]; at third progesterone challenge test, all females except the one given 0.2 mg/kg im daily, target zone 35 to 45 pg/ml): in or near the target zone
mean serum estradiol concentrations ([2]; dose raised to 0.1 mg/kg im daily from day 31, 8 monkeys): approximately 40 pg/ml
monkeys achieving withdrawal amenorrhea ([3]; second progesterone challenge test, only the monkeys raised to 0.1 mg/kg im daily): 8 of 9
Incidence of Spotting ([3]; week of progesterone withdrawal days 31-37): 13 days
Amenorrhea Achieved ([3]; week of progesterone withdrawal days 31-37, first challenge, all eleven monkeys on 0.05 mg/kg im daily): two and 2/11
Incidence of Spotting ([3]; week of progesterone withdrawal days 61-67): 12 days
Amenorrhea Achieved ([3]; week of progesterone withdrawal days 61-67, second challenge, 0.05 or 0.1 mg/kg im daily): 10/11
Incidence of Spotting ([3]; week of progesterone withdrawal days 91-97): 0 days
Amenorrhea Achieved ([3]; week of progesterone withdrawal days 91-97, third challenge, 0.05, 0.1 or 0.2 mg/kg im daily): eleven and 11/11
